Where “and” joins values, the source holds several entries; their conditions need not be identical. Equal values may be shown once.

Series [1] relates to HT1080-(CAG)850 cells. The experiment in a line: cell toxicity, WST-1 assay. Particulars: treated with NA for 72 hr. On the procedure:
Scale bar represents 20 μm.
The construction of the HT1080-(CAG)850 cell model was described previously (Sathasivam et al., 1997, Hum. Genet., 99:692-5). Briefly, HT1080 (ATCC) human fibrosarcoma cells were co-transfected with a plasmid (LC15-R) containing 800-850 (CTG)●(CAG) repeats (Nakatani et al., 2005, Nat. Chem. Biol., 1:39-43) and a plasmid encoding PhiC31 integrase. Transfection was performed with a Nucleofector (Lonza, Basel, Switzerland), and stably transfected clones were selected with puromycin. The HT1080-non transcribing (CAG)850 cell model was established by transfecting a plasmid modified from pLC16 by adding a SV40 polyadenylation signal downstream of the repeats, instead of LC15-R. The HT1080-non-transcribing (CAG)850 cell model was established by transfecting a plasmid modified from pLC16 by inserting an additional SV40 polyadenylation signal downstream of the repeats (in addition to the original polyadenylation signals located upstream of the repeats), so that CAG/CTG repeats are floxed by transcription-terminator elements. The AttB-PhiC31 system has been widely used for single copy integration. […]

For series [2], the system named is HT1080-(CAG)850 cells. Kind of series: small-pool PCR repeat instability, proliferating HT1080-(CAG)850 cells producing rCAG transcript. Format: cell-based, human. Particulars: 30 days; for % Contraction / % Expansion: cut-off ±25 repeats. Here is the method: The construction of the HT1080-(CAG)850 cell model was described previously (Sathasivam et al., 1997, Hum. Genet., 99:692-5). Briefly, HT1080 (ATCC) human fibrosarcoma cells were co-transfected with a plasmid (LC15-R) containing 800-850 (CTG)●(CAG) repeats (Nakatani et al., 2005, Nat. Chem. Biol., 1:39-43) and a plasmid encoding PhiC31 integrase. Transfection was performed with a Nucleofector (Lonza, Basel, Switzerland), and stably transfected clones were selected with puromycin. The HT1080-non-transcribing (CAG)850 cell model was established by transfecting a plasmid modified from pLC16 by inserting an additional SV40 polyadenylation signal downstream of the repeats (in addition to the original polyadenylation signals located upstream of the repeats), so that CAG/CTG repeats are floxed by transcription-terminator elements. The AttB-PhiC31 system has been widely used for single copy integration. […] The HT1080 model cells and an HD primary fibroblast cell line, GM09197 (Coriell Biorepository) with a large expanded allele of 180 CAG repeats and a non-expanded allele of 23 repeats (Sathasivam et al., 1997, Hum. Genet., 99:[…]), the HD primary fibroblast cell line, GM02191 (Coreill Biorepository) with an expanded allele of 43 CAG repeats and a non-expanded allele of 19 repeats, were cultured at 37° C. with 5% CO2 in Dulbecco's modified Eagle's medium supplemented with 10% fetal bovine serum and 1% penicillin/streptomycin. Cells were treated with or without continuous exposure to 50-μM NA for 30 days (HT1080 cells) or for 40 days (fibroblast cells). For experiments on non-proliferating cells, HT1080 cells were grown to confluence and then treated for the same period. WST-1 assay was performed according to the manufacturer's instructions (Roche, Basel, Switzerland). All cell lines were tested to be free of Mycoplasma. Three biological replicates were performed for each experiment.
Genomic DNA was extracted from HT1080-(CAG)850 clones and HD primary fibroblasts using the Gentra Puregene Cell Kit (Qiagen, Valencia, Calif.). The expanded (CTG)●(CAG) repeats were sized by small-pool PCR (sp-PCR) followed by Southern blot as described previously (Sathasivam et al., 1997, Hum. Genet., 99:692-5). For HT1080 models, small-pool PCR (spPCR) was performed with the input of 1.4-1.7 genome equivalents. The repeat size difference in the models is, at most, 3000 base-pairs, therefore, being strictly conservative, a bias toward amplifying the shorter allele can be possible, even under optimized PCR conditions described herein. For HD primary fibroblasts, sp-PCR & Southern blots were performed as described previously with slight modifications (Tome et al., 2013, PLoS Genet., 9:e1003280). Briefly, the PCR primers listed in Table 1 were used, and blots were hybridized with a DIG-labeled (CAG)7 locked nucleic acid probe (Nakamori et al. 2009, Neuromuscul. Disord., 19:759-62). At least 50 alleles were analyzed for each of the three experiments (more than 150 alleles for a total study). Repeat analyses are summarized in Table 2, compiled from complete small-pool-PCR datasets for each repetition of each experiment. For the histograms in FIGS. 4D, 4E, 10, 11, 5B, 5D, 5E, 14 and 15B, the Y-axis, “% of repeat population” was calculated by determining the proportion of >50 individual small-pool PCR reactions across the CAG repeat tract, that harbored a certain size of repeat product with a certain length. Cell clones were grown 30 or 40 days with or without NA (see, for example, Sathasivam et al., 1997, Hum. Genet., 99:692-5). Specifically, the histograms of repeat length distributions were from at least two different cell clones. Length distributions were determined as follows: Small-pool PCR followed by Southern blot for analysis of CAG/CTG repeat length.

Series [3] deals with transcription across the CAG transgene, R6/2 striatum. The experiment in a line: qRT-PCR of CAG transgene transcription in R6/2 striatum. The series is classed as in vivo, mouse. Particulars: NA-treated vs. PBS-treated R6/2 striatum. Here is the method: Strand specific RT-PCR (1 weeks). AttB-PhiC31 system have been widely used for single copy integration. Panel B of FIG. 16 was determined by quantitative real-time reverse transcriptase (qRT)-PCR and normalized to U6 RNA, expressed as the ratio of NA-treated vs. PBS-treated R6/2 striatum. Data are indicated as the mean±SD of triplicates.
For orientation: In qPCR the cycle at which signal appears reflects the starting amount.

Setting [4] is: 50 uM NA, Total of 3 experiments.
Where [5] appears, read: 50 uM NA, single experiments Ex 1-3.

On to naphthyridine-azaquinolone, for which the “acute cytotoxicity (cell viability, WST-1)” value with HT1080-(CAG)850 cells [1] is “without causing acute cytotoxicity”. Besides, the “magnitude of repeat units lost (greatest)” value in the series on HT1080-(CAG)850 cells [2] (50 μM NA) is recorded as at most 790 repeats. Besides, in the series on HT1080-(CAG)850 cells [2] (setting [4]), the “% Unchanged” value came out at 26.7%, the “% Contraction” value was 59.4% and the “% Expansion” value turned out to be 13.9%. Further, the “Average Change of Repeat Size” value with HT1080-(CAG)850 cells [2] (50 uM NA, Total of 3 experiments, all alleles) was −125.7 number of repeats. Moreover, in the series with HT1080-(CAG)850 cells [2] (setting [5]), the “% Unchanged” value is 28.4% and 27.4% and 23.7%; the “% Contraction” value is 56.8% and 60.0% and 61.0%; the “% Expansion” value is 14.8% and 11.3% and 15.2%. Also, the “effect on transcription across the CAG transgene” value in series [3] is reported as “does not affect transcription”.
